Key:
CB1 [1] = target: T1, CB1 (Homo sapiens (Human), UniProt P21554); assay: CB1 activated Gαq16-coupled intracellular calcium mobilization assay in CHO-K1 cells; type: cell-based; conditions: apparent affinity (Ke)
CB1 [2] = target: T1, CB1; assay: Radioligand displacement of [3H]SR141716 at CB1; type: binding; conditions: radioligand [3H]SR141716; read-out: Ki (nM) v. [3H]SR141716 at CB1
CB2 = CB2 (Homo sapiens (Human), UniProt P34972); assay: Displacement of [3H]CP55940 in membranes of CHO-K1 cells over-expressing CB2; type: binding; conditions: radioligand [3H]CP55940, CHO-K1 membranes; read-out: Ki (nM) v. [3H]CP55940 at CB2
MDCK-MDR = MDCK-MDR transport (apical to basal); type: in vitro ADME
CB1 [3] = target: T1, CB1; assay: Displacement of [3H]CP55940 in membranes of CHO-K1 cells over-expressing CB1;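 for all read-outs here: reported values are averages of 3-6 independent measurements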; conditions: for Binding Selectivity using CP55940 Displacement: CB1 versus CB2; for Ki: read-out: Ki (nM) v. [3H]CP55940 at CB1, radioligand [3H]CP55940, CHO-K1 membranes
Procedure: Further characterization of select compounds was performed using radioligand displacement of [3H]1 and equilibrium dissociation constant (Ki) values were determined. Selectivity of these compounds at CB1 versus CB2 was also determined by obtaining Ki values at either receptor using displacement of [3H]CP55940 in membranes of CHO-K1 cells over-expressing either receptor. Data reported are average values from 3-6 measurements.
Selectivity against the CB2 receptor was determined by comparing the compound displacement of radiolabeled CP55940, which is a cannabinoid known to act as a full agonist at both CB1 and CB2 receptors.

[4] = Brain penetration / plasma and brain levels after oral dosing in SD rats; type: in vivo, Sprague-Dawley (SD) rats; conditions: Sprague-Dawley, rat, oral 10 mg/kg
Procedure: However, unlike otenabant, this sulfonamide is a peripherally selective compound. […] Select compounds were chosen for study to determine penetration into the CNS. Selected compounds were dosed orally at 10 mg/kg in SD rats. Brain and plasma samples were collected at 1, 2, 4, and 24 hours post dose and samples were analyzed by MS (Table 2, below). Since unperfused brains were used and the blood volume in unperfused brains is approximately 4%, a brain to plasma level of ≦0.04 represents no discernible penetration into the CNS.

Chain of CB2 (P34972 whole entry): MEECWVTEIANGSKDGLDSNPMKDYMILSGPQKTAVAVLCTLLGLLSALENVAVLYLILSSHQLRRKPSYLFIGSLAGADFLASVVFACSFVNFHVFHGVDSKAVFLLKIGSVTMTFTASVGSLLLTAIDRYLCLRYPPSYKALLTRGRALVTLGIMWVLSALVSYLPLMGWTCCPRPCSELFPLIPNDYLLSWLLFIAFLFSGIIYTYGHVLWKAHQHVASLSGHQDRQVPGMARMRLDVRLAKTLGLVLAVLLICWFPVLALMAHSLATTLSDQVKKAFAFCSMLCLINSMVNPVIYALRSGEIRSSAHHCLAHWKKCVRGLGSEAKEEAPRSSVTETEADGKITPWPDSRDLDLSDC
T1 sequence (P21554 whole entry): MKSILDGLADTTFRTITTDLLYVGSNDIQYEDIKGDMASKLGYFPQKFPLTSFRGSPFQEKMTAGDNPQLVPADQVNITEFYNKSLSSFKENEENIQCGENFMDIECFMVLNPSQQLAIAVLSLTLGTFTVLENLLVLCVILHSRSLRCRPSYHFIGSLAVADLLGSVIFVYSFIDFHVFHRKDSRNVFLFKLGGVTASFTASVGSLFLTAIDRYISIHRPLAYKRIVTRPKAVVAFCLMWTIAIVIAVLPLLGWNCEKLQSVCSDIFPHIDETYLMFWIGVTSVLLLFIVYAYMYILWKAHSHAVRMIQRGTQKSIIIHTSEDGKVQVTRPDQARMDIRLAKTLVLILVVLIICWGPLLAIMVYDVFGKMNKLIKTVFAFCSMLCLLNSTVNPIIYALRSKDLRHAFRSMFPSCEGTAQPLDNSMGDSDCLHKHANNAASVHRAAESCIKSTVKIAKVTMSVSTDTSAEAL

Kp ([4]; brain and plasma, range over sampling times, read-out: brain to plasma ratios) | Cmax ([4]; in vivo) | Structure (SMILES) | Ke (nM) at CB1 (CB1 [1]) | Ki (CB1 [2]) | Ki (CB2) | % MDCK-MDR transport (Apical to Basal) (MDCK-MDR) | Binding Selectivity using CP55940 Displacement (CB1 [3]) | Ki (CB1 [3])
– | – | NC(=O)C1(c2ccccc2)CCN(c2ncnc3c2nc(-c2ccccc2Cl)n3-c2ccc(Cl)cc2)CC1 | 9 nM | 0.28 nM | 5510 nM | 5.6 ± 2.4% | 3076.5 | 1.79 nM
– | – | O=S1(=O)CCN(c2ncnc3c2nc(-c2ccccc2Cl)n3-c2ccc(Cl)cc2)CC1 [4-[8-(2-Chlorophenyl)-9-(4-chlorophenyl)-9H-purin-6-yl]-1λ^6,4-thiomorpholine-1,1-dione] | 159.00 nM | 16.8 nM | 834 nM | – | 26.0 | 32.1 nM
– | – | CC(C)(C)OC(=O)NC1(c2ccccc2)CCN(c2ncnc3c2nc(-c2ccccc2Cl)n3-c2ccc(Cl)cc2)CC1 | 3.93 nM | – | 13900 nM | <1% | 1959 | 7.12 nM
– | – | CC(=O)NC1(c2ccccc2)CCN(c2ncnc3c2nc(-c2ccccc2Cl)n3-c2ccc(Cl)cc2)CC1 | 10.31 nM | – | 726 nM | 6% | 121 | 6 nM
– | – | NC1(c2ccccc2)CCN(c2ncnc3c2nc(-c2ccccc2Cl)n3-c2ccc(Cl)cc2)CC1 | 15.89 nM | – | 1660 nM | <1% | 151 | 11 nM
– | – | CC(C)(C)NC(=O)NC1(c2ccccc2)CCN(c2ncnc3c2nc(-c2ccccc2Cl)n3-c2ccc(Cl)cc2)CC1 | 19.17 nM | – | 20000 nM | <1% | 784 | 25.5 nM
– | – | CC(C)(C)NC(=O)C1(c2ccccc2)CCN(c2ncnc3c2nc(-c2ccccc2Cl)n3-c2ccc(Cl)cc2)CC1 | 2.2 nM | – | 20000 nM | <1% | 4902 | 4.08 nM
– | – | NS(=O)(=O)NCC1CCC(CNc2ncnc3c2nc(-c2ccccc2Cl)n3-c2ccc(Cl)cc2)CC1 (centres unmarked) | 549.0 nM | 94.5 nM | 10700 nM | – | 30.2 | 355 nM
0.05 to 0.11 | 1650 ng/g | CS(=O)(=O)NC1(c2ccccc2)CCN(c2ncnc3c2nc(-c2ccccc2Cl)n3-c2ccc(Cl)cc2)CC1 [N-{1-[8-(2-Chlorophenyl)-9-(4-chlorophenyl)-9H-purin-6-yl]-4-phenylpiperidin-4-yl}methanesulfonamide] | – | – | 948 nM | <1% | 153 | 6.21 nM
– | – | CS(=O)(=O)NCC1CCC(CNc2ncnc3c2nc(-c2ccccc2Cl)n3-c2ccc(Cl)cc2)CC1 (centres unmarked) | 201.00 nM | 44.5 nM | 2230 nM | >50% | 8.6 | 258 nM
